Assay results published in patent publication US20250057748A1, “FORMULATIONS OF DIHYDROKAEMPFEROL” (DEBUT BIOTECHNOLOGY, INC., priority 2023, published 2025).

How the values were obtained:
[1] = Solubility of dihydrokaempferol in various solvents; assay type: physicochemical
Excerpt: Table 1, provided below, provides solubility data for dihydrokaempferol in various solvents.

[2] = Dihydrokaempferol stability at 70° C. in various solvents; assay type: physicochemical
Experimental: Table 2, provided below, provides stability data for compositions comprising dihydrokaempferol in various solvents, when stored at 70° C. for up to one (1) month.

[3] = ABTS antioxidant assay (aqueous medium); assay type: biochemical
Excerpt: The 2,2′-Azinobis [3-ethylbenzothiazoline-6-sulfonic acid]-diammonium salt (ABTS) antioxidant assay is designed to evaluate the antioxidant activity of compositions comprising dihydrokaempferol in an aqueous medium.
ABTS+ solution is generated as a free radical and used to measure relative ability of a compound to scavenge free radicals. Reduction of the absorbance at 734 nm was standardized to solvent control as an indication of ABTS+ scavenging.

[4] = DPPH antioxidant activity assay (organic medium); assay type: biochemical
Excerpt: The 2,2-diphenyl-1-picrylhydrazyl (DPPH) antioxidant assay is designed to evaluate the antioxidant activity of compositions comprising dihydrokaempferol in an organic medium. 2,2-diphenyl-1-picrylhydrazyl (DPPH) is a stable free radical used to evaluate free radical scavenging capacity of a material. In the presence of an antioxidant DPPH is reduced, resulting in the formation of a colorless solution. Reduction of absorbance at 517 nm is standardized to solvent control as an indication of DPPH scavenging.

[5] = target: T1, human neutrophil elastase (Homo sapiens, UniProt P08246); experiment: Elastase enzyme inhibition; assay type: biochemical
T1 sequence (P08246 30-267): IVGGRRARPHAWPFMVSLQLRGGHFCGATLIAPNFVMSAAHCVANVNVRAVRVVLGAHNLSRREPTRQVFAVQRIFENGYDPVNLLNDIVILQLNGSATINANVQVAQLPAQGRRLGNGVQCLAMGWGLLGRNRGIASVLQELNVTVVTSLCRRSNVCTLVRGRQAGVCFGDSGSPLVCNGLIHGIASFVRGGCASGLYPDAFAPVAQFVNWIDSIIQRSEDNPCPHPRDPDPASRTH
Experimental: The assay was conducted to evaluate the elastase enzyme inhibition activity of compositions comprising dihydrokaempferol.
Neutrophil infiltration and neutrophil elastase are both increased in the skin in response to UV stress. […] Therefore, inhibition of this enzyme, particularly in combination with antioxidant activity, is effective in delaying wrinkle development and aiding in maintaining skin integrity. This assay is measures release of 4-nitroaniline from an Me-Suc-Ala-Ala-Pro-Val-pNA by human neutrophil elastase and can be quantified at 405 nm by comparing to solvent control.

glycation = experiment: Glycation inhibition assay; assay type: biochemical
Experimental: The assay was conducted to evaluate the glycation inhibition activity of compositions comprising dihydrokaempferol.
Nonenzymatic glycation can occur when glucose reacts with proteins, forming a Schiff base intermediate that subsequently undergoes Amadori rearrangement to form glycosylated proteins, when they react with skin proteins to form Advanced Glycation End products (AGE). AGE formation can result in loss of skin elasticity and impaired cellular function. The glycation inhibition ability of a compound is measured by change in fluorescence at excitation/emission of 360 nm/420 nm relative to solvent control.

IL-6 = experiment: Anti-inflammatory activity: IL-6 ELISA in LPS/Poly:IC stressed keratinocytes; assay type: cell-based, Human; details: for % Reduction vs Treated / IL-6: stimulated NHEK, 24 hours
Experimental: Normal Human Epidermal Keratinocytes (NHEK) were stressed with a cocktail of lipopolysaccharide (LPS) and Polyinosinic-polycytidylic acid sodium salt (Poly:IC), external aggressors capable of inducing an inflammatory response. Stressed cells were subsequently treated with test articles and incubated for 24 hours. Reduction in inflammatory markers was measured by ELISA and % reduction calculated relative to solvent control.

Filaggrin = experiment: Skin barrier marker by flow cytometry in hDF; assay type: cell-based, Human; details: 0.003% DHK
Experimental: (§1) Human dermal fibroblasts (hDF) were treated with test article of interest. Barrier markers of interest were measured by flow cytometry.

Loricrin = experiment: Skin barrier marker by flow cytometry in hDF; assay type: cell-based, Human; details: 0.003% DHK
Experimental: as §1

[6] = system: Human dermal fibroblasts (hDF); experiment: Wound healing: fibroblast regrowth after insert removal, image analysis; assay type: cell-based; details: 0.003% DHK
Experimental: Human dermal fibroblasts (hDF) were plated in the presence of a growth-preventing insert. The insert was subsequently removed and regrowth measured by image analysis.

Elastin = experiment: Anti-aging: elastin ELISA in hDF; assay type: cell-based, Human
Experimental: Human dermal fibroblasts (hDF) were treated with test article of interest. Elastin was quantified by ELISA.

[7] = system: C-X-C Motif Chemokine Ligand 1 (CXCL1); experiment: Differential gene expression in keratinocytes; assay type: cell-based; details: normal human epidermal keratinocytes, 1% DHK
Excerpt: (§2) Log 2fold changes are detailed in FIG. 4. Table 13, provided below, highlights certain examples of differential gene expression in normal human epidermal keratinocytes treated with compositions comprising 1% DHK.

[8] = system: C-X-C Motif Chemokine Ligand 2 (CXCL2); experiment: Differential gene expression in keratinocytes; assay type: cell-based; details: normal human epidermal keratinocytes, 1% DHK
Excerpt: as §2

[9] = system: Fibroblast Growth Factor 2 (FGF2); experiment: Differential gene expression in keratinocytes; assay type: cell-based; details: normal human epidermal keratinocytes, 1% DHK
Excerpt: as §2

Interleukin 24 (IL24) = experiment: Differential gene expression in keratinocytes; assay type: cell-based; details: normal human epidermal keratinocytes, 1% DHK
Excerpt: as §2

Interleukin 6 (IL6) = experiment: Differential gene expression in keratinocytes; assay type: cell-based; details: normal human epidermal keratinocytes, 1% DHK
Excerpt: as §2

Thrombospondin 4 (THBS4) = experiment: Differential gene expression in keratinocytes; assay type: cell-based; details: normal human epidermal keratinocytes, 1% DHK
Excerpt: as §2

[10] = system: Transient Receptor Potential Cation Channel Subfamily (TRPV6); experiment: Differential gene expression in keratinocytes; assay type: cell-based; details: normal human epidermal keratinocytes, 1% DHK
Excerpt: as §2

[11] = system: Tumor Necrosis Factor (TNF); experiment: Differential gene expression in keratinocytes; assay type: cell-based; details: normal human epidermal keratinocytes, 1% DHK
Excerpt: as §2

[12] = system: Vascular Endothelial Growth Factor A (VEGFA); experiment: Differential gene expression in keratinocytes; assay type: cell-based; details: normal human epidermal keratinocytes, 1% DHK
Excerpt: as §2

macrophage cell lines = macrophage cell lines and skin; Venditti et al. 2013; Lee et al. 2013; cited from earlier work
[13] = Venditti et al. 2013; Liang et al. 2020; cited from earlier work
[14] = Venditti et al. 2013; Liang et al. 2020; cited from earlier work; remark: listed apart in the source
[15] = mice; Liang et al. 2020; cited from earlier work
Sirtuin-1 = details: reduces oxidative stress and inflammatory response; Zhang et al. 2021; cited from earlier work
PPAR-72 = details: stimulates glucose uptake; Zhang et al. 2011; cited from earlier work
[16] = Isopropyl lauroyl sarcosinate, 1 month
[17] = Isopropyl lauroyl sarcosinate, 1 week

O=C1c2c(O)cc(O)cc2O[C@H](c2ccc(O)cc2)[C@H]1O [dihydrokaempferol]
Solubility (% w/w) ([1]; Solvent: 1,2 Propanediol): 0.00 % w/w
Solubility (% w/w) ([1]; Solvent: 1,2 heptanediol): 5.00 % w/w
Solubility (% w/w) ([1]; Solvent: 3-methyl-1,3-butanediol): 0.00 % w/w
Solubility (% w/w) ([1]; Solvent: Butylene glycol): 5.00 % w/w
Solubility (% w/w) ([1]; Solvent: C9-12 Alkane): 0.00 % w/w
Solubility (% w/w) ([1]; Solvent: C15-19 Alkane): 0.00 % w/w
Solubility (% w/w) ([1]; Solvent: Capric/Caprylic Triglyceride): 0.00 % w/w
Solubility (% w/w) ([1]; Solvent: Di(propylene glycol) dibenzoate): 0.00 % w/w
Solubility (% w/w) ([1]; Solvent: Dimethyl Isosoribide): 20.00 % w/w
Solubility (% w/w) ([1]; Solvent: Ethoxydiglycol): 25.00 % w/w
Solubility (% w/w) ([1]; Solvent: Isoamyl Laurate): 0.00 % w/w
Solubility (% w/w) ([1]; Solvent: Isopentyldiol): 5.00 % w/w
Solubility (% w/w) ([1]; Solvent: Isopropyl Lauroyl sarcosinate): 10.00 % w/w
Solubility (% w/w) ([1]; Solvent: Isopropyl Myristate): 0.00 % w/w
Solubility (% w/w) ([1]; Solvent: Jojoba Oil): 0.00 % w/w
Solubility (% w/w) ([1]; Solvent: Neopentyl Glycol Dihexanoate): 0.00 % w/w
Solubility (% w/w) ([1]; Solvent: Oleyl Alcohol): 0.00 % w/w
Solubility (% w/w) ([1]; Solvent: Pentylene glycol): 5.00 % w/w
Solubility (% w/w) ([1]; Solvent: Phenylpropanol): 0.00 % w/w
Solubility (% w/w) ([1]; Solvent: Propanediol): 5.00 % w/w
Solubility (% w/w) ([1]; Solvent: Squalene): 0.00 % w/w
Solubility (% w/w) ([1]; Solvent: Sunflower Oil): 0.00 % w/w
Solubility (% w/w) ([1]; Solvent: Tri C12-13 alkyl citrate): 0.00 % w/w
Solubility (% w/w) ([1]; Solvent: Tributyl citrate): 0.00 % w/w
Solubility (% w/w) ([1]; Solvent: Tributyl-O-acetylcitrate): 0.00 % w/w
Solubility (% w/w) ([1]; Solvent: Triethyl Citrate): 0.00 % w/w
Solubility (% w/w) ([1]; Solvent: Triethyl-O-acetylcitrate): 0.00 % w/w
Solubility (% w/w) ([1]; Solvent: Triisostearin): 0.00 % w/w
Solubility in words ([1]; in Helianthus Annuus (Sunflower) Seed Oil): insoluble
Solubility in words ([1]; in a number of other commonly used solvents): minimally soluble
Solubility in words ([1]; in capric/caprylic triglyceride): minimally soluble
Solubility in words ([1]; in dimethyl isosorbide, ethoxydiglycol, glycol, isopropyl lauroyl sarcosinate, pentylene glycol, 1,2 hexanediol, propanediol, butylene glycol, phenylpropanol, isopentyldiol, 1,2 heptanediol): soluble
Solubility in words ([1]; in isopropyl myristate): minimally soluble
Solubility in words ([1]; in oil): poorly soluble or insoluble
Solubility in words ([1]; in water): poorly soluble or insoluble
% remaining ([2]; Dimethyl isosorbide, 1 month): 91%
Concentration (% w/w) 1 month ([2]; Dimethyl isosorbide, 1 month): 6.04 % w/w
% remaining ([2]; Dimethyl isosorbide, 1 week): 95%
Concentration (% w/w) 1 week ([2]; Dimethyl isosorbide, 1 week): 6.33 % w/w
Concentration (% w/w) Initial ([2]; Dimethyl isosorbide): 6.66 % w/w
% remaining ([2]; Ethoxydiglycol, 1 month): 84%
Concentration (% w/w) 1 month ([2]; Ethoxydiglycol, 1 month): 6.54 % w/w
% remaining ([2]; Ethoxydiglycol, 1 week): 94%
Concentration (% w/w) 1 week ([2]; Ethoxydiglycol, 1 week): 7.27 % w/w
Concentration (% w/w) Initial ([2]; Ethoxydiglycol): 7.74 % w/w
% remaining [2, 16]: 92%
Concentration (% w/w) 1 month [2, 16]: 7.71 % w/w
% remaining [2, 17]: 97%
Concentration (% w/w) 1 week [2, 17]: 8.14 % w/w
Concentration (% w/w) Initial ([2]; Isopropyl lauroyl sarcosinate): 8.40 % w/w
% Radical Inhibition ([3]; ABTS, 0.00625 % w/w): 32.55%
% Radical Inhibition ([3]; ABTS, 0.0125 % w/w): 42.49%
% Radical Inhibition ([3]; ABTS, 0.025 % w/w): 56.17%
IC50 antioxidant activity ([3]; ABTS, aqueous solvent system, calculated): 0.0143 % w/w
Lowest concentration with antioxidant activity ([3]; aqueous systems): 0.00625 % w/w
% Radical Inhibition ([4]; DPPH, 0.016 % w/w): 16.54%
% Radical Inhibition ([4]; DPPH, 0.031 % w/w): 31.00%
% Radical Inhibition ([4]; DPPH, 0.063 % w/w): 61.12%
IC50 antioxidant activity ([4]; DPPH, organic solvent system, calculated): 0.05 % w/w
Lowest concentration with antioxidant activity ([4]; organic solvent systems): 0.016 % w/w
Lowest concentration inhibiting elastase enzyme activity [5]: 0.1 % w/w
inhibition at 0.02 % strength ([5]; 0.020 % w/w): 0%
inhibition at 0.1 % strength ([5]; 0.100 % w/w): 29.6%
inhibition at 0.5 % strength ([5]; 0.500 % w/w): 81.5%
IC50 elastase enzyme inhibition ([5]; calculated): 0.13 % w/w
Lowest concentration inhibiting glycation (glycation): 0.004 % w/w
% Glycation Inhibition (glycation; 0.004 % w/w): 25.05%
% Glycation Inhibition (glycation; 0.011 % w/w): 42.23%
% Glycation Inhibition (glycation; 0.033 % w/w): 64.87%
% Glycation Inhibition (glycation; 0.100 % w/w): 82.42%
IC50 glycation inhibition (glycation; calculated): 0.016 % w/w
% Reduction vs Treated (IL-6; 0.001% DHK): 31.32%
IL-6 (IL-6; 0.001% DHK): 838.7 pg/mL
% Reduction vs Treated (IL-6; 0.002% DHK): 43.70%
IL-6 (IL-6; 0.002% DHK): 687.5 pg/mL
% Reduction vs Treated (IL-6; 0.003% DHK): 64.79%
IL-6 (IL-6; 0.003% DHK): 430.0 pg/mL
Reduction of inflammatory marker IL-6 (up to) (IL-6; in vitro, summary of Table 9): up to 64.79%
% Total Population (Filaggrin): 42.2%
% Total Population (Loricrin): 19.3%
Closure Rate 24 hr ([6]; 24 hr): 4.17
Closure Rate 48 hr ([6]; 48 hr): 9.40
Elastin (Elastin; 0.001% DHK): 23.1 ng/mL
Elastin (Elastin; 0.003% DHK): 16.6 ng/mL
Elastin (Elastin; 0.005% DHK): 15.9 ng/mL
Log2 Fold Change [7]: −1.91
Log2 Fold Change [8]: −4.19
Log2 Fold Change [9]: 1.82
Log2 Fold Change (Interleukin 24 (IL24)): −2.01
Log2 Fold Change (Interleukin 6 (IL6)): −5.54
Log2 Fold Change (Thrombospondin 4 (THBS4)): 3.30
Log2 Fold Change [10]: 2.19
Log2 Fold Change [11]: −3.39
Log2 Fold Change [12]: 2.32
Anti-inflammatory activity (macrophage cell lines): anti-inflammatory activity
Function as antioxidant [13]: antioxidant
Function as anti-diabetic [14]: anti-diabetic
Treatment of severe acute pancreatitis [15]: treatment for severe acute pancreatitis
Effect on Sirtuin-1 (Sirtuin-1): upregulates
Effect on PPAR-72 expression (PPAR-72): increases
